Experiments:
[1] = tested on: giant foxtail; experiment: Test A pre-/postemergence herbicide test; assay type: in vivo, Setaria faberii; conditions: for Foxtail, Giant plant response rating: Preemergence, visual rating on 0 to 100 scale (0 no effect, 100 complete control)
Outline: (§1)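 Approximately 10 days after treatment in the greenhouse, plants were compared with untreated controls and given a 0–100 visual injury rating. Applications: preemergence directed soil spray; postemergence on 2–10 cm plants at the one- to two-leaf stage.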

[2] = tested on: galium; experiment: Test A postemergence herbicide test; assay type: in vivo, Galium aparine
Outline: (§2)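 Young potted plants in a loam–sand mix, one- to two-leaf stage and 2–10 cm tall, receive the test chemical postemergence and stay in a greenhouse for approximately 10 days. Injury is then judged by eye against untreated plants, scored 0 (none) to 100 (complete control).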

[3] = tested on: ragweed; experiment: Test A pre-/postemergence herbicide test; assay type: in vivo, Ambrosia elatior
Outline: as §1

[4] = tested on: kochia; experiment: Test A pre-/postemergence herbicide test; assay type: in vivo, Kochia scoparia
Outline: as §1

[5] = tested on: ryegrass, Italian; experiment: Test A pre-/postemergence herbicide test; assay type: in vivo, Lolium multiflorum
Outline: as §1

[6] = tested on: pigweed; experiment: Test A pre-/postemergence herbicide test; assay type: in vivo, Amaranthus retroflexus; conditions: for Pigweed plant response rating: Preemergence, visual rating on 0 to 100 scale (0 no effect, 100 complete control)
Outline: as §1

[7] = tested on: ducksalad; experiment: Test B flooded paddy test; assay type: in vivo, Heteranthera limosa; conditions: Flood, scale of 0 to 100 where 0 is no effect and 100 is complete control
Outline: (§3)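 Plants were grown to the 2-leaf stage, then pots were flooded to 3 cm above the soil and compound was applied directly into the paddy water, with that depth held throughout. After 13 to 15 days in a greenhouse, injury was rated visually against untreated controls on a 0 to 100 scale (100 = complete control).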

[8] = tested on: rice; experiment: Test B flooded paddy test; assay type: in vivo, Oryza sativa; conditions: Flood, scale of 0 to 100 where 0 is no effect and 100 is complete control
Outline: as §3

[9] = tested on: barnyardgrass; experiment: Test A pre-/postemergence herbicide test; assay type: in vivo, Echinochloa crus-galli; conditions: for Barnyardgrass plant response rating: Preemergence, visual rating on 0 to 100 scale (0 no effect, 100 complete control)
Outline: as §1

[10] = tested on: barnyardgrass; experiment: Test B flooded paddy test; assay type: in vivo, Echinochloa crus-galli; conditions: Flood, scale of 0 to 100 where 0 is no effect and 100 is complete control
Outline: as §3

[11] = tested on: blackgrass; experiment: Test A postemergence herbicide test; assay type: in vivo, Alopecurus myosuroides
Outline: as §2

[12] = tested on: sedge, umbrella; experiment: Test B flooded paddy test; assay type: in vivo, Cyperus difformis; conditions: Flood, scale of 0 to 100 where 0 is no effect and 100 is complete control
Outline: as §3

[13] = tested on: corn; experiment: Test A pre-/postemergence herbicide test; assay type: in vivo, Zea mays; conditions: for Corn plant response rating: Preemergence, visual rating on 0 to 100 scale (0 no effect, 100 complete control)
Outline: as §1

[14] = tested on: wheat; experiment: Test A pre-/postemergence herbicide test; assay type: in vivo, Triticum aestivum; conditions: for Wheat plant response rating: Preemergence, visual rating on 0 to 100 scale (0 no effect, 100 complete control)
Outline: as §1

[15] = tested on: crabgrass, large; experiment: Test A pre-/postemergence herbicide test; assay type: in vivo, Digitaria sanguinalis; conditions: for Crabgrass, Large plant response rating: Preemergence, visual rating on 0 to 100 scale (0 no effect, 100 complete control)
Outline: as §1

[16] = tested on: morningglory; experiment: Test A pre-/postemergence herbicide test; assay type: in vivo, Ipomoea spp.; conditions: for Morningglory plant response rating: Preemergence, visual rating on 0 to 100 scale (0 no effect, 100 complete control)
Outline: as §1

[17] = tested on: velvetleaf; experiment: Test A pre-/postemergence herbicide test; assay type: in vivo, Abutilon theophrasti; conditions: for Velvetleaf plant response rating: Preemergence, visual rating on 0 to 100 scale (0 no effect, 100 complete control)
Outline: as §1

[18] = Postemergence, 125 g ai/ha, 0 to 100 scale, 0 no effect, 100 complete control
[19] = Postemergence, 500 g ai/ha, 0 to 100 scale (0 no effect, 100 complete control)
[20] = preemergence, 500 g ai/ha, 0 to 100 scale
[21] = 125 g ai/ha, 0 to 100 scale, 0 no effect, 100 complete control
[22] = 500 g ai/ha, 0 to 100 scale (0 no effect, 100 complete control)
[23] = Preemergence, 125 g ai/ha, visual rating on 0 to 100 scale (0 no effect, 100 complete control)
[24] = preemergence, 500 g ai/ha, 0 to 100 scale (0 no effect, 100 complete control)

| Structure (SMILES) | Plant response rating, Foxtail, Giant [1, 18] | Plant response rating, Foxtail, Giant [1, 19] | Foxtail, Giant plant response rating ([1]; 125 g ai/ha) | Plant response rating, Foxtail, Giant [1, 20] | Plant response rating, Pigweed [6, 18] | Plant response rating, Pigweed [6, 19] | Pigweed plant response rating ([6]; 125 g ai/ha) | Plant response rating, Pigweed [6, 20] | Plant response rating, Barnyardgrass [9, 18] | Plant response rating, Barnyardgrass [9, 19] | Barnyardgrass plant response rating ([9]; 125 g ai/ha) | Plant response rating, Barnyardgrass [9, 24] | Plant response rating, Corn [13, 18] | Plant response rating, Corn [13, 19] | Plant response rating, Wheat [14, 18] | Plant response rating, Wheat [14, 19] | Plant response rating, Crabgrass, Large [15, 18] | Plant response rating, Crabgrass, Large [15, 19] | Crabgrass, Large plant response rating ([15]; 125 g ai/ha) | Plant response rating, Crabgrass, Large [15, 20] | also measured |
| --- | --- | --- | --- | --- | --- | --- | --- | --- | --- | --- | --- | --- | --- | --- | --- | --- | --- | --- | --- | --- | --- |
| O=C1NCC(c2cccc(C(F)(F)F)c2)C1C(=O)Nc1ccccn1 (racemic) [Compound 110] | 80 | 90 | 60 | 90 | 0 | 0 | 0 | 0 | 50 | 90 | 70 | 90 | 0 | 20 | 0 | 20 |  |  |  |  | Plant response rating, Galium [2, 21]: 20; Plant response rating, Galium [2, 22]: 40; Plant response rating, Ragweed [3, 18]: 0; Plant response rating, Ragweed [3, 19]: 0; Ragweed plant response rating [3, 23]: 0; Plant response rating, Ragweed [3, 20]: 0; Plant response rating, Kochia [4, 18]: 0; Plant response rating, Kochia [4, 19]: 0; Kochia plant response rating [4, 23]: 0; Plant response rating, Kochia [4, 20]: 0; Plant response rating, Ryegrass, Italian [5, 18]: 20; Plant response rating, Ryegrass, Italian [5, 19]: 40; Ryegrass, Italian plant response rating [5, 23]: 0; Plant response rating, Ryegrass, Italian [5, 20]: 0; Plant response rating, Ducksalad ([7]; 1000 g ai/ha): 95; Plant response rating, Rice ([8]; 1000 g ai/ha): 0; Plant response rating, Barnyardgrass ([10]; 1000 g ai/ha): 0; Plant response rating, Blackgrass [11, 21]: 0; Plant response rating, Blackgrass [11, 22]: 70; Plant response rating, Sedge, Umbrella ([12]; 1000 g ai/ha): 50 |
| Cc1cccc(NC(=O)C2C(=O)NCC2c2ccc(F)c(F)c2)c1 (stereo not drawn) [Compound 56] | 20 | 60 | 20 | 50 | 0 | 0 | 0 | 0 | 0 | 50 | 0 | 40 | 0 | 0 | 0 | 0 | 50 | 80 | 60 | 90 | Plant response rating, Morningglory [16, 18]: 0; Plant response rating, Morningglory [16, 19]: 0; Morningglory plant response rating ([16]; 125 g ai/ha): 0; Plant response rating, Morningglory [16, 20]: 0; Plant response rating, Ducksalad ([7]; 250 g ai/ha): 0; Plant response rating, Rice ([8]; 250 g ai/ha): 0; Plant response rating, Barnyardgrass ([10]; 250 g ai/ha): 0; Plant response rating, Velvetleaf [17, 18]: 0; Plant response rating, Velvetleaf [17, 19]: 0; Velvetleaf plant response rating ([17]; 125 g ai/ha): 0; Plant response rating, Velvetleaf [17, 20]: 0; Plant response rating, Sedge, Umbrella ([12]; 250 g ai/ha): 0; Corn plant response rating ([13]; 125 g ai/ha): 0; Plant response rating, Corn [13, 20]: 0; Wheat plant response rating ([14]; 125 g ai/ha): 0; Plant response rating, Wheat [14, 20]: 0 |
| CC1(C(=O)Nc2cccc(F)c2F)C(=O)NCC1c1ccc(F)c(Cl)c1 (stereo not drawn) [Compound 61] | 0 | 30 | 0 | 0 | 0 | 0 | 0 | 0 | 0 | 20 | 0 | 0 | 0 | 0 | 0 | 0 | 0 | 70 | 0 | 80 | Plant response rating, Morningglory [16, 18]: 0; Plant response rating, Morningglory [16, 19]: 0; Morningglory plant response rating ([16]; 125 g ai/ha): 0; Plant response rating, Morningglory [16, 20]: 0; Plant response rating, Ducksalad ([7]; 250 g ai/ha): 0; Plant response rating, Rice ([8]; 250 g ai/ha): 0; Plant response rating, Barnyardgrass ([10]; 250 g ai/ha): 0; Plant response rating, Velvetleaf [17, 18]: 0; Plant response rating, Velvetleaf [17, 19]: 0; Velvetleaf plant response rating ([17]; 125 g ai/ha): 0; Plant response rating, Velvetleaf [17, 20]: 0; Plant response rating, Sedge, Umbrella ([12]; 250 g ai/ha): 30; Corn plant response rating ([13]; 125 g ai/ha): 0; Plant response rating, Corn [13, 20]: 0; Wheat plant response rating ([14]; 125 g ai/ha): 0; Plant response rating, Wheat [14, 20]: 0 |
| O=C1NCC(c2ccc3c(c2)OC(F)(F)O3)C1C(=O)Nc1ccccc1F (stereo not drawn) [Compound 63] | 70 | 90 | 70 | 90 | 0 | 0 | 0 | 0 | 60 | 80 | 50 | 80 | 0 | 50 | 0 | 30 | 80 | 90 | 90 | 90 | Plant response rating, Morningglory [16, 18]: 0; Plant response rating, Morningglory [16, 19]: 0; Morningglory plant response rating ([16]; 125 g ai/ha): 0; Plant response rating, Morningglory [16, 20]: 0; Plant response rating, Ducksalad ([7]; 250 g ai/ha): 60; Plant response rating, Rice ([8]; 250 g ai/ha): 0; Plant response rating, Barnyardgrass ([10]; 250 g ai/ha): 20; Plant response rating, Velvetleaf [17, 18]: 0; Plant response rating, Velvetleaf [17, 19]: 0; Velvetleaf plant response rating ([17]; 125 g ai/ha): 0; Plant response rating, Velvetleaf [17, 20]: 0; Plant response rating, Sedge, Umbrella ([12]; 250 g ai/ha): 0; Corn plant response rating ([13]; 125 g ai/ha): 0; Plant response rating, Corn [13, 20]: 0; Wheat plant response rating ([14]; 125 g ai/ha): 0; Plant response rating, Wheat [14, 20]: 0 |

From patent US10294202B2, “Pyrrolidinones as herbicides” (FMC Corporation, priority 2013, dated 2019)
